Entries after “also recorded” stand apart in the source; their conditions may differ.
Key:
coronary arteries [1] = experiment: Mechanical injury coronary vasospasm protocol (Protocol 2); assay type: in vivo, rhesus monkeys (Macaca mulatta); settings: serotonin 67 μmol/liter IC; U46619 67 nmol/liter or 1 nmol/liter; ET1 ≦10 nmol/liter; AII ≦10 μmol/liter
Excerpt: A separate mechanical injury, Protocol 2, was used in three additional monkeys (one male, two ovx). The injury step of Protocol 2, was deliberate mechanical stretching of the LAD or left main coronary artery with a 5F catheter.
In Protocol 2, steps 1-5 were the same as in Protocol 1. The remaining steps were as follows:
7. IC injection of angiotensin II (sequential doses to 10 μmol/liter);
8. Injury by stretching the coronary artery with a 5F catheter;
9. IC injection of serotonin (sequential doses to 1 mmol/liter);
(§1) 10. IC injection 15 minutes later with 1 or 10 μmol/liter nitrendipine or Ro 40-5967 (mibefradil);
11. IC injection of […] (sequential doses to 10 μmol/liter); and
(§2) 12. IC injection 15 minutes later with 1 or 10 μmol/liter nitrendipine or Ro 40-5967.
Putative coronary vasospasm stimuli were judged primarily by actions on large coronary artery diameters, analyzed as diameter of the most proximal focus of vasospasm at end-diastole from video-taped images recorded at 30 frames/s. We used the image analysis program Image Pro to measure the diameters from single frames acquired with an Imagraph frame grabber in a Pentium computer. We used the 3F catheter tip radio-opaque marker ring (1.0 mm) for calibration and determined minimal and maximal diameters just distal to the constriction. All responses to interventions were also X-ray imaged immediately (15 to 30 s after injection) and at exactly 3 minutes (and 15 minutes if there was vasospasm) after injection.

coronary arteries [2] = tested on: coronary arteries
coronary arteries [3] = experiment: animal or person; settings: Macaca mulatta, read-out: EC50 (-log mol/liter) (converted)
coronary arteries [4] = experiment: Relief of coronary vasospasm by intracoronary Ca2+ antagonist; assay type: in vivo, rhesus monkeys (Macaca mulatta)
Procedure: The eighth to tenth steps, which were 1 ml injections of 100 μmol/liter serotonin and 1 μmol/liter U46619 combined, were the critical steps. These concentrations of serotonin and U46619, injected in three repeated challenges, provoked drug-induced vasospasm. Sensitivity was determined by whether the vasospasm response occurred to the first, second or third stimulus, allowing at least a 7-minute delay from one injection to the next. For three of these seven ovx monkeys, 1-2 nM endothelin-1 (alone and plus serotonin) and 1 μmol/liter angiotensin-II (alone and plus serotonin) steps were administered between steps 10 and 11 (as additional challenges), but these extra steps never produced vasospasm. […] Step 12 was a Ca^2+ antagonist, either nitrendipine or mibefradil, as a vasodilator to relieve the vasospasm or cardiogenic shock that was the end point.
as §1, §2
To allow monkeys to recover and prevent death due to cardiogenic shock, we followed combined serotonin and U46619 stimulation with an IC Ca^2+ antagonist, either nitrendipine or mibefradil, at the end of the 15 minute vasospasm, except for that in FIG. 2. […] In monkeys with severe vasoconstriction and low heart rates (<90 beats/minute), Ca^2+ antagonists effected increases to 90 to 200 beats/minute due to reversal of atrioventricular […] conduction blocks (evident in the recovery of heart rate shown in Table 2).

SMILES | coronary vasospasm with mechanical injury (5F catheter stretch) (coronary arteries [1]) | Spasms/N (coronary arteries [2]; Protocol 1, number of animals with vasospasm / number of animals) | ED50 (-log mol/liter) (coronary arteries [2]; Protocol 1, syringe concentration of the named vasoconstrictor causing 50% reduction of diameter from control, combined stimuli with 100 μmol/liter serotonin) | vasoactivity / constriction of arteries on IC injection of single agent (coronary arteries [2]; serotonin 67 nmol/liter to 667 μmol/liter, U46619 6.7 to 2,000 nmol/liter) | coronary vasospasm on IC injection (no mechanical injury) (coronary arteries [2]; serotonin 6.7 or 200 μmol/liter alone, U46619 6.7 to 2,000 nmol/liter alone, AII up to 200 nmol/liter, combination 6.7 μmol/liter serotonin and 67 nmol/liter U46619, triple combination with ET1) | EC50 (coronary arteries [3]) [mol/L] | relief of coronary vasospasm (coronary arteries [4]; IC injection, nitrendipine 1 to 10 μmol/liter, mibefradil 0.1 to 10 μmol/liter, not allowing for dilution) | blood pressures returned to normal ranges (minimums, systolic/diastolic) (coronary arteries [4]; Mibefradil IC 0.1 to 10 μmol/liter, from diastolic levels as low as 10 to 20 mm Hg) | blood pressure after IC mibefradil (coronary arteries [4]; one MPA monkey of Example 2, nadir 38/20 mm Hg, after 15 minutes vasospasm)
NCCc1c[nH]c2ccc(O)cc12 [Serotonin, serotonin] | caused coronary vasospasm at multiple sites; also recorded: Vasospasm was stimulated | 0/8 | 2.5 -log mol/liter | vasoactive in all animals | vasospasm could not be found | 0.000158 | – | – | –
COCC(=O)O[C@]1(CCN(C)CCCc2nc3ccccc3[nH]2)CCc2cc(F)ccc2[C@@H]1C(C)C [mibefradil] | – | – | – | – | – | – | immediately effective in relieving vasospasm | 100/60 | 124/84
